From EP3653608A1, “ISOQUINOLINE BIARYL COMPOUNDS, A PHARMACEUTICAL COMPOSITION COMPRISING THE SAME, AND USES THEREOF” (Ludwig-Maximilians-Universität München, priority 2018, dated 2020)
“Also recorded” adds a separate entry of the source. Read-outs that look alike come from different tables or passages of the source.

What was measured:
HL60 cell line = experiment: Antiproliferative MTT assay, HL60 cell line; format: cell-based; conditions: Homo sapiens, HL-60, 48 h incubation
microtubule network = experiment: Microtubule perturbation in cellulo, immunofluorescence staining of α-tubulin; format: cell-based, human; conditions: HeLa cells, 24 h incubation, A-2 in PBS, A-3 with 0.25% DMSO cosolvent
HeLa cell line = experiment: Antiproliferative MTT assay, HeLa cell line; format: cell-based; conditions: Homo sapiens
[1] = human, 40 min, 2 uM
CYP2D6 = CYP2D6 (Homo sapiens, UniProt P10635); experiment: in vitro; conditions: probe fluorogenic CYP substrate (not named)
CYP2C9 = CYP2C9 (Homo sapiens, UniProt P11712); experiment: in vitro; conditions: probe fluorogenic CYP substrate (not named)
CYP3A4 = CYP3A4 (Homo sapiens, UniProt P08684); experiment: in vitro; conditions: probe fluorogenic CYP substrate (not named)
physchem = conditions: pH 7.4
[2] = Metabolic stability in mouse liver microsomes; conditions: 2 uM, over 40 minutes, 37°C
CYP1A2 = biological target: T1, CYP1A2 (Homo sapiens, UniProt P05177); experiment: Cytochrome P450 inhibition with fluorogenic substrate, CYP1A2; conditions: CYP1A2, 10 µM, 10 minute preincubation, 25 minute reaction
T1 sequence (P05177 1-516): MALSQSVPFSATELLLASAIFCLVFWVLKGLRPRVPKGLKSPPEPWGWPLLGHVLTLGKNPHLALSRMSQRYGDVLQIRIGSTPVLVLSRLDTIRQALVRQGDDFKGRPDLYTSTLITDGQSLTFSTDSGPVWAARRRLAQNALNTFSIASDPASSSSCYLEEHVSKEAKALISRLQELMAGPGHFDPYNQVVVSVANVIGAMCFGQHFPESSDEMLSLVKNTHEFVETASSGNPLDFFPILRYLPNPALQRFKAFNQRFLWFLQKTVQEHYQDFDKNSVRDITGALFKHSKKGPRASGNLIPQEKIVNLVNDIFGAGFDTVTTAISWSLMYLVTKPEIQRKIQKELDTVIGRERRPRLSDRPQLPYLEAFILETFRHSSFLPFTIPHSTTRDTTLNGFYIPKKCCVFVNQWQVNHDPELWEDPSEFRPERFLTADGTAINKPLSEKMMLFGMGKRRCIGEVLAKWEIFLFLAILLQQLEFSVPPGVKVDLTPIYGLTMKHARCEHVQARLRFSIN

CYP2C19 = CYP2C19 (Homo sapiens, UniProt P33261); experiment: Cytochrome P450 inhibition with fluorogenic substrate, CYP2C19; conditions: CYP2C19, 10 µM, 10 minute preincubation, 60 min reaction
[3] = system: tubulin polymerisation dynamics; experiment: Inhibition of tubulin polymerisation dynamics in cellulo, confocal video microscopy of EB3-YFP comets; format: cell-based, human; conditions: 0.24 µM, live HeLa cells expressing EB3-YFP
From the text: In videos this marker manifests as bright well-defined moving "comets", and in still images as bright elongated streaks, when MTs are polymerising normally as in the control image (frame "ctrl"). […] "DMSO ctrl" denotes the cosolvent control for the A-3 images (i.e. 0.25% DMSO but no compound) while "PBS ctrl" denotes the control for the A-2 images (no compound or cosolvent applied); these controls show the expected structure of the microtubule network when no inhibition is applied.

HeLa cells = experiment: Cell cycle analysis by flow cytometry, propidium iodide staining; format: cell-based, human; conditions: 24 h incubation, propidium iodide DNA staining, phosphate
Balb/c mice = experiment: Safe dosing parameters in vivo in mice

CYP3A4, sequence (P08684 whole entry): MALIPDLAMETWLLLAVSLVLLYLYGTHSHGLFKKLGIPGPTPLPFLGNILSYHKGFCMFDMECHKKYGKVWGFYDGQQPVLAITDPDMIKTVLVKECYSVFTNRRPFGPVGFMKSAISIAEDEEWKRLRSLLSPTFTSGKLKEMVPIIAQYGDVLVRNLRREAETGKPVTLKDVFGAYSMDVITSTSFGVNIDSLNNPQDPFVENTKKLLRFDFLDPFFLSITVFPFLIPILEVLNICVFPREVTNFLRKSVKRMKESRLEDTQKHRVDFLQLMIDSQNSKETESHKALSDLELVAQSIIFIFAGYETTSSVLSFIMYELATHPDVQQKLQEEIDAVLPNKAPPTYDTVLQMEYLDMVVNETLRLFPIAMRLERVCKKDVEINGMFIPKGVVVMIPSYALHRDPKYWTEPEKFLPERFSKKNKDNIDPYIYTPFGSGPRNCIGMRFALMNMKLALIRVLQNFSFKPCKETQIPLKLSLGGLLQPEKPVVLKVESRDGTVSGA
CYP2C19, sequence (P33261 whole entry): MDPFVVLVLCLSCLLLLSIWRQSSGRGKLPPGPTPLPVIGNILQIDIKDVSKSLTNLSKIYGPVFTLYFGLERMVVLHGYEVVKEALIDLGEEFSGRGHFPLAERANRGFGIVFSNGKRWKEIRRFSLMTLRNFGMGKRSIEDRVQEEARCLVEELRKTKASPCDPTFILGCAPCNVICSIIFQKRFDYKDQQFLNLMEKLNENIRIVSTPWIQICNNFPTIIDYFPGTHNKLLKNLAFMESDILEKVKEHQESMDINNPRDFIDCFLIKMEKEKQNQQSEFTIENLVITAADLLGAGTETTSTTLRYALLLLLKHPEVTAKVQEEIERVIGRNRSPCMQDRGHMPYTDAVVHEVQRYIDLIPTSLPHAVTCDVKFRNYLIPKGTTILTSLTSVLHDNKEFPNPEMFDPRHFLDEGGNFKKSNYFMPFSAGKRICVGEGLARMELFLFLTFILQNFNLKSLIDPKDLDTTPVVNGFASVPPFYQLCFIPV
CYP2D6, sequence (P10635 whole entry): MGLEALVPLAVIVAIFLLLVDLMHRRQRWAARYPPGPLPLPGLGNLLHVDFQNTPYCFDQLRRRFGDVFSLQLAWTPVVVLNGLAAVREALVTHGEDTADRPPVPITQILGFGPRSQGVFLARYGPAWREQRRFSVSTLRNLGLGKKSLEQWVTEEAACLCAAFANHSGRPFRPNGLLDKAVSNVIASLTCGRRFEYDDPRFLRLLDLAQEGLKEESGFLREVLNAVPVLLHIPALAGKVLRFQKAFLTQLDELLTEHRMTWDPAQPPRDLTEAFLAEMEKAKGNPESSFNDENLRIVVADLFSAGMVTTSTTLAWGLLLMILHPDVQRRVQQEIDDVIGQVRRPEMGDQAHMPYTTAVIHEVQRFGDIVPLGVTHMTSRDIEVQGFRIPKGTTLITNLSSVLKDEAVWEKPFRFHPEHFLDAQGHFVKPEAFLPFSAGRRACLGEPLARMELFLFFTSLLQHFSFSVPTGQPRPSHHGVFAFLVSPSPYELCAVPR
CYP2C9, sequence (P11712 whole entry): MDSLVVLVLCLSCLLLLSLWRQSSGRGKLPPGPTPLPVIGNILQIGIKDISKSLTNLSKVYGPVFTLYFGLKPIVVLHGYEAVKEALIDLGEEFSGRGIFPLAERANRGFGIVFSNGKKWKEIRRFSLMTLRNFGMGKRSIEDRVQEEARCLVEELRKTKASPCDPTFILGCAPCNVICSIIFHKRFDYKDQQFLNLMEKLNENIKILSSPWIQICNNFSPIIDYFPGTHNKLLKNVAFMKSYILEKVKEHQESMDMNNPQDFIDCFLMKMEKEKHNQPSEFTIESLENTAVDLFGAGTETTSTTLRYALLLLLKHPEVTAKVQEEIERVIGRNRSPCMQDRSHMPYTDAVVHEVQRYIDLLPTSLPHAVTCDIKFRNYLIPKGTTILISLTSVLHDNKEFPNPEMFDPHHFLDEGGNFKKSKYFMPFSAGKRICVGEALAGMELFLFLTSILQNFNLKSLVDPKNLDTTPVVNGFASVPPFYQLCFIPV

COc1ccc2ccnc(-c3cc(OC)c(OC)c(OC)c3)c2c1 [A-3, 7-methoxy-1-(3,4,5-trimethoxyphenyl)isoquinoline]
IC50 (HL60 cell line): 280 nM
microtubule network perturbation (microtubule network): pronounced disorganisation and destruction of the microtubule network

COc1cc2c(-c3cc(OC)c(OC)c(OC)c3)nccc2cc1O [A-1, 7-methoxy-1-(3,4,5-trimethoxyphenyl)isoquinolin-6-ol]
IC50 (HL60 cell line): 100 nM
IC50 (HeLa cell line; HeLa cell line, MTT assay, 48 h incubation, read-out: IC50): 240 nM
degradation [1]: 31%
inhibition at 25 min, 10 µM (CYP2D6): 13 to 19%
inhibition at 25 min, 10 µM (CYP2C9): 13 to 19%
inhibition at 25 min, 10 µM (CYP3A4): 13 to 19%
logD (physchem): 2.18
degradation [2]: 33%
inhibition (CYP1A2): zero
apparent enhancement of activity (CYP2C19): 50%

COc1cc2c(-c3cc(OC)c(OC)c(OC)c3)nccc2cc1OP(=O)([O-])[O-].[Na+].[Na+] [A-2, disodium 7-methoxy-1-(3,4,5-trimethoxyphenyl)isoquinolin-6-yl phosphate]
IC50 (HeLa cell line; HeLa, 48 h): 130 nM
time until the comets stopped and vanished [3]: ≤ 0.5 min
microtubule network perturbation (microtubule network; phosphate): pronounced disorganisation and destruction of the microtubule network
cell cycle effect (HeLa cells): extensive cell cycle arrest leading to accumulation of cells in the G2/M phase; also recorded: dose-dependently causes accumulation of cells at the G2/M phase
tolerability (Balb/c mice; repeated dosage 25 mg/kg i.p., 3 administrations at 48-hour intervals, Balb/c mice): tolerated compound administration
tolerability (Balb/c mice; repeated dosage 25 mg/kg i.v., 3 administrations at 48-hour intervals, Balb/c mice): tolerated compound administration
tolerability (Balb/c mice; single dosage 31.5 mg/kg i.p., male and female Balb/c mice): tolerated by all mice tested
tolerability (Balb/c mice; single dosage 50 mg/kg i.v., male and female Balb/c mice): tolerated by all mice tested

Cn1c(=O)c2c(ncn2C)n(C)c1=O [caffeine, reference compound]
degradation [1]: < 10%
